Experimental data as given in patent publication US20160264570A1, “METHOD OF BLOCKING TRANSMISSION OF MALARIAL PARASITE” (THE UNITED STATES OF AMERICA, AS REPRESENTED BY THE …, priority 2013, published 2016).
Where two headings read alike, the source gives them in different places.

Tests used:
[1] = system: P. falciparum strain 3D7 gametocytes; test: alamarBlue gametocyte viability assay, strain 3D7
[2] = system: Asexual parasites of P. falciparum strain 3D7; test: SYBR Green viability assay on asexual parasites; assay type: cell-based, Plasmodium falciparum; conditions: Plasmodium falciparum, read-out: Activity against asexual parasites EC50
HepG2 cells = test: Cytotoxicity in mammalian HepG2 cell line; conditions: for % Max response: HepG2; for IC50 (μM) in HepG2 cells / IC50 (μM) in HepG2: Inactive = no significant activity at highest tested concentration (46 μM)
[3] = Plasmodium falciparum, 3D7, read-out: Gametocytocidal activity EC50, Table 8
[4] = Plasmodium falciparum, 3D7, read-out: 3D7-IC50
[5] = Homo sapiens, HepG2, read-out: IC50 (μM) in HepG2 cells
[6] = read-out: Gametocyte IC50, mean of at least 3 independent experiments, P. falciparum 3D7 gametocyte
[7] = Plasmodium falciparum, 3D7, read-out: Gametocyte IC50
[8] = Plasmodium falciparum, 3D7, read-out: IC50 against gametocytes

Work on `Nc1ccc(-c2ccc3ncc4[nH]c(=O)n(-c5cccc(C(F)(F)F)c5)c4c3c2)cn1` yielded an EC50 ([1]; Plasmodium falciparum, 3D7, read-out: Gametocytocidal activity EC50, Table 7) of 88 nM and an EC50 ([2]; 3D7, Table 7) of 105 nM.
For `Cc1cc2cnc3ccc(-c4ccc(N)nc4)cc3c2n(-c2cccc(C(F)(F)F)c2)c1=O`, the EC50 [1, 3] was 46 nM and the EC50 ([2]; 3D7, Table 8) was 205 nM.
For `CCc1cc2cnc3ccc(-c4ccc(N)nc4)cc3c2n(-c2cccc(C(F)(F)F)c2)c1=O`, the EC50 [1, 3] was 136 nM and the EC50 ([2]; 3D7, Table 8) was 260 nM.
With `COc1cccc2c1C(=O)c1c(O)c3c(c(O)c1C2=O)C[C@@](O)(C(=O)CO)C[C@@H]3O[C@H]1C[C@H](N)[C@H](O)[C@H](C)O1` [Adriamycin] the IC50 [1, 4] was 526 nM, the “% Max response” value (HepG2 cells; Table 4) was −35% and the “IC50 (μM) in HepG2 cells” value (HepG2 cells; Table 4) was “Inactive”.
`CN(C)C/C=C/C(=O)Nc1cc2c(Nc3ccc(F)c(Cl)c3)ncnc2cc1O[C@H]1CCOC1` [Afatinib] was tested, and the IC50 [1, 4] was 935 nM, the IC50 (HepG2 cells; [5]) was 18.7 µM and the “% Max response” value (HepG2 cells; Table 4) was −100%.
In the case of `CO[C@H]1/C=C\C=C(/C)C(=O)NC2=CC(=O)C(NCCN(C)C)=C(C[C@@H](C)C[C@H](OC)[C@H](O)[C@@H](C)/C=C(\C)[C@@H]1OC(N)=O)C2=O` [Alvespimycin], the IC50 (HepG2 cells; [5]) is reported as 0.118 µM and the “% Max response” value (HepG2 cells; Table 4) is reported as −94%.
In the case of `CO[C@H]1O[C@@H]2O[C@@]3(C)CC[C@H]4[C@H](C)CC[C@@H]([C@H]1C)[C@@]24OO3` [Artemether], the “% Max response” value (HepG2 cells; Table 4) is reported as 7% and the “IC50 (μM) in HepG2 cells” value (HepG2 cells; Table 4) is reported as “Inactive”.
`C[C@@H]1CC[C@H]2[C@@H](C)C(=O)O[C@@H]3O[C@@]4(C)CC[C@@H]1[C@]32OO4` [Artemisinin, artemisinin] was tested, and the IC50 [1, 4] was 100 nM, the “% Max response” value (HepG2 cells; Table 4) was 18% and the “IC50 (μM) in HepG2 cells” value (HepG2 cells; Table 4) was “Inactive”.
In the case of `C[C@H]1[C@@H](O)O[C@@H]2O[C@@]3(C)CC[C@H]4[C@H](C)CC[C@@H]1[C@@]24OO3` [Artenimol (DHA)], the IC50 [1, 6] is reported as 77 nM, the “% Max response” value (HepG2 cells; Table 2) is reported as 20% and the “IC50 (μM) in HepG2” value (HepG2 cells; Table 2) is reported as “Inactive”. The “% Max response” value (HepG2 cells; Table 4) was 20% and the “IC50 (μM) in HepG2 cells” value (HepG2 cells; Table 4) was “Inactive”.
For `C[C@H]1[C@H](OC(=O)CCC(=O)O)O[C@@H]2O[C@@]3(C)CC[C@H]4[C@H](C)CC[C@@H]1[C@@]24OO3` [Artesunate], the “% Max response” value (HepG2 cells; Table 4) was 18% and the “IC50 (μM) in HepG2 cells” value (HepG2 cells; Table 4) was “Inactive”.
With `CC(C)C[C@H](NC(=O)[C@H](Cc1ccccc1)NC(=O)c1cnccn1)B(O)O` [Bortezomib] the IC50 [1, 4] was 100 nM, the IC50 (HepG2 cells; [5]) was 0.148 µM and the “% Max response” value (HepG2 cells; Table 4) was −82%.
For `CC(C)C[C@H](NC(=O)[C@H](CCc1ccccc1)NC(=O)CN1CCOCC1)C(=O)N[C@@H](Cc1ccccc1)C(=O)N[C@@H](CC(C)C)C(=O)[C@@]1(C)CO1` [Carfilzomib], the IC50 (HepG2 cells; [5]) was 1.18 µM and the “% Max response” value (HepG2 cells; Table 4) was −79%.
`S=C(SSC(=S)N1CCCCC1)N1CCCCC1` [Dicyclopentamethylene-thiuram disulfide, reference compound] was tested, and the IC50 [1, 7] was 274 nM.
With `S=C(SSC(=S)N1CCCCC1)N1CCCCC1` [Dicyclopentamethylenethiram disulfide] the “% Max response” value (HepG2 cells; Table 2) was 0%, the “IC50 (μM) in HepG2” value (HepG2 cells; Table 2) was “Inactive” and the “% Max response” value (HepG2 cells; Table 4) was 0%. The “IC50 (μM) in HepG2 cells” value (HepG2 cells; Table 4) was “Inactive”.
In the case of `c1ccc2c(c1)[I+]c1ccccc1-2` [Diphenyleneiodonium], the IC50 [1, 4] is reported as 100 nM.
For `[O-][n+]1ccccc1SSc1cccc[n+]1[O-]` [Dipyrithione], the IC50 [1, 4] was 200 nM, the IC50 (HepG2 cells; [5]) was 10.8 µM and the “% Max response” value (HepG2 cells; Table 4) was −93%.
For `CN(NC(=O)CC(=O)NN(C)C(=S)c1ccccc1)C(=S)c1ccccc1` [Elesclomol, elesclomol, reference compound], the IC50 [1, 7] was 6 nM.
Molecule `CO[C@@H]1[C@@H](OC)[C@H](C)[C@@](O)(CC(=O)O)O[C@H]1[C@H](C)[C@H]1O[C@@]2(CC[C@@](C)([C@H]3CC[C@@](C)([C@@H]4O[C@@H]([C@H]5O[C@](C)(O)[C@H](C)C[C@@H]5C)C[C@@H]4O[C@@H]4C[C@H](OC)[C@@H](OC)[C@H](C)O4)O3)O2)C[C@H](O)[C@H]1C` [Maduramicin] has an IC50 [1, 7] of 47 nM, an IC50 [1, 8] of 3 to 50 nM and an Emax (HepG2 cells; Homo sapiens, HepG2, read-out: % Max response) of -42%. For the same molecule, the IC50 (HepG2 cells; Homo sapiens, HepG2, read-out: IC50 (μM) in HepG2) was 37.2 µM and the IC50 (HepG2 cells; [5]) was 37.2 µM.
`OC(c1cc(C(F)(F)F)nc2c(C(F)(F)F)cccc12)C1CCCCN1` (stereo not drawn) [Mefloquine, mefloquine] was tested, and the IC50 (HepG2 cells; [5]) was 29.6 µM and the “% Max response” value (HepG2 cells; Table 4) was −97%.
In the case of `CCNC(=O)c1noc(-c2cc(C(C)C)c(O)cc2O)c1-c1ccc(CN2CCOCC2)cc1` [NVP-AUY922], the IC50 [1, 8] is reported as 3 to 50 nM, the IC50 (HepG2 cells; [5]) is reported as 0.148 µM and the “% Max response” value (HepG2 cells; Table 4) is reported as −88%.
`CC[C@@H](C(=O)O)[C@@H]1O[C@@H]([C@@H](C)[C@H](O)[C@H](C)C(=O)[C@H](CC)[C@H]2O[C@]3(C=C[C@@H](O)[C@]4(CC[C@@](C)([C@H]5CC[C@](O)(CC)[C@H](C)O5)O4)O3)[C@H](C)C[C@@H]2C)[C@@H](C)C[C@@H]1C` [Narasin] was tested, and the IC50 [1, 8] was 3 to 50 nM, the IC50 (HepG2 cells; [5]) was 27 µM and the “% Max response” value (HepG2 cells; Table 4) was −98%.
With `COC(=O)C[C@](O)(CCCC(C)(C)O)C(=O)O[C@@H]1C(OC)=C[C@]23CCCN2CCc2cc4c(cc2[C@H]13)OCO4` [Omacetaxine] the IC50 [1, 6] was 83 nM, the “% Max response” value (HepG2 cells; Table 2) was −27% and the “IC50 (μM) in HepG2” value (HepG2 cells; Table 2) was “Curve not complete”. The “% Max response” value (HepG2 cells; Table 4) was −27% and the “IC50 (μM) in HepG2 cells” value (HepG2 cells; Table 4) was “Curve not complete”.
In the case of `O=C1C(=O)c2ncccc2-c2cccnc21` [Phanquinone], the IC50 [1, 4] is reported as 100 nM, the “% Max response” value (HepG2 cells; Table 4) is reported as 23% and the “IC50 (μM) in HepG2 cells” value (HepG2 cells; Table 4) is reported as “Inactive”.
With `COc1ccc(C[C@H](N)C(=O)N[C@H]2[C@@H](O)[C@H](n3cnc4c(N(C)C)ncnc43)O[C@@H]2CO)cc1` [Puromycin] the IC50 [1, 4] was 1050 nM, the IC50 (HepG2 cells; [5]) was 11.8 µM and the “% Max response” value (HepG2 cells; Table 4) was −71%.
With `CN(C)C(=S)SSC(=S)N(C)C` [Thiram] the “% Max response” value (HepG2 cells; Table 4) was 23% and the “IC50 (μM) in HepG2 cells” value (HepG2 cells; Table 4) was “Inactive”.
In the case of `CC(=O)Nc1cccc(-n2c(=O)n(C3CC3)c(=O)c3c(Nc4ccc(I)cc4F)n(C)c(=O)c(C)c32)c1` [Trametinib], the “% Max response” value (HepG2 cells; Table 4) is reported as 14% and the “IC50 (μM) in HepG2 cells” value (HepG2 cells; Table 4) is reported as “Inactive”.
In the case of `COCCn1c2c([n+](Cc3cnccn3)c1C)C(=O)c1ccccc1C2=O` [YM155], the IC50 [1, 4] is reported as 372 nM, the IC50 (HepG2 cells; [5]) is reported as 4.69 µM and the “% Max response” value (HepG2 cells; Table 4) is reported as −92%.
